According to patent US4945114A, “Therapeutic agents containing enantiomers of propafenone” (priority 1987, dated 1990):
pKi: −log10 of the molar value. Structures can show the parent of a compound that is named as a salt.

Legend:
[1] = tested on: aconitine-induced arrhythmia; test: Antiarrhythmic action in aconitine-induced arrhythmia of the rat; format: in vivo; conditions: iv, 5 min, read-out: Antiarrhythmic effect on aconitine-induced arrhythmias ED 50%
Experimental: 2. Determination of the antiarrhythmic action in aconitine-induced arrhythmia of the rat
The experimental animals used were male Sprague-Dawley rats weighing from 180 to 300 g. Anaesthesia was effected intraperitoneally with 100 mg/kg of thiobutabarbital. To induce arrhythmias, aconitine was infused at a rate of 5 μg per kg per minute. The test substances were administered intravenously 2 minutes before the beginning of the aconitine infusion. The parameter measured was the duration of the aconitine infusion when the first arrhythmias (loss of P, ventricular extrasystoles and tachycardias) appeared in the ECG of the animals. In untreated animals, the aconitine-induced arrhythmia occurred after 3.3±0.11 minutes (n=120). The ED 50% was determined from the linear relationship between log dose (mg/kg) of the test substances and the relative prolongation of aconitine infusion duration (Δ%).

[2] = molecular target: T1, β2-receptor subtype (rat lung membranes, 25% of β1, 75% of β2) (Rattus norvegicus, UniProt P10608); test: Inhibition of specific 3H-dihydroalprenolol binding in rat lung membranes; conditions: 1 nM 3H-dihydroalprenolol, confidence limits in brackets, read-out: Lung Ki (competition constant)
T1 construct: rat lung membranes; from tissue; host or cells: rat lung membranes
Experimental: Two experiments were carried out with three batches.

T1 sequence (P10608 whole entry): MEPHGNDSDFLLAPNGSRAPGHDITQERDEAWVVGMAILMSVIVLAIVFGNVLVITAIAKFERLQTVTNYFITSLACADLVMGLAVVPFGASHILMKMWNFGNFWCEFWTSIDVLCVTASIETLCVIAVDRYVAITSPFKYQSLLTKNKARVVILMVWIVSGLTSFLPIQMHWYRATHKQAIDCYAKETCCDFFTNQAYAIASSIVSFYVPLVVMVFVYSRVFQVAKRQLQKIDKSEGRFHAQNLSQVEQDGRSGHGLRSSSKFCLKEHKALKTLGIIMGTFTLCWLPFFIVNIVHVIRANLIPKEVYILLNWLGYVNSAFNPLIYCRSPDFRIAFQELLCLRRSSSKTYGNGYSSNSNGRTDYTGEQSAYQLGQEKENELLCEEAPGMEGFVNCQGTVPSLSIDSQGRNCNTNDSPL

Structure (SMILES)	ED50 [1] [mg/kg]	pKi [2]
CCCNCC(O)COc1ccccc1C(=O)CCc1ccccc1 (racemic) [(R,S)-propafenone, 2'-(2-hydroxy-3-propylaminopropoxy)-3-phenylpropiophenone, reference compound]	0.724	7.49
CCCNC[C@@H](O)COc1ccccc1C(=O)CCc1ccccc1 [(R)-propafenone, (R)-propafenone . HCl]	0.801	6.59
CCCNC[C@H](O)COc1ccccc1C(=O)CCc1ccccc1 [(S)-propafenone, (S)-propafenone . HCl]	0.676	7.85
